Laboratory results taken from patent US20260060250A1, “HERBICIDAL PYRIDONE DERIVATIVES” (SYNGENTA CROP PROTECTION AG, priority 2022, published 2026).

Key:
Assay type in all cases: in vivo
Conditions in all cases: lower rate of 250 g per hectare, evaluated after 13 days
[1] = tested on: Ipomoea hederacea (IPOHE); assay: Post-emergence Test (Table B2)
Procedure, shortened: (§1)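 Seed-sown pots receive a 1000 g/ha spray (other rates where stated) in 50:50 acetone/water with 0.5% Tween 20. Glasshouse conditions are 24/16 °C day/night with 14 h light. Evaluation is by percentage damage at 13 days.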

Zea mays (ZEAMX) [2] = assay: Post-emergence Test (Table B2)
Procedure, shortened: as §1

[3] = tested on: Echinochloa crus-galli (ECHCG); assay: Post-emergence Test (Table B2)
Procedure, shortened: as §1

[4] = tested on: Echinochloa crus-galli (ECHCG); assay: Pre-emergence Test (Table B1); set-up: key: 5=81-100%; 4=61-80%; 3=41-60%; 2=21-40%; 1=0-20%; 0=inactive
[5] = tested on: Amaranthus retroflexus (AMARE); assay: Pre-emergence Test (Table B1)
[6] = tested on: Ipomoea hederacea (IPOHE); assay: Pre-emergence Test (Table B1)
Setaria faberi (SETFA) [7] = assay: Pre-emergence Test (Table B1); set-up: key: 5=81-100%; 4=61-80%; 3=41-60%; 2=21-40%; 1=0-20%; 0=inactive
Setaria faberi (SETFA) [8] = assay: Post-emergence Test (Table B2)
Procedure, shortened: as §1

[9] = tested on: Amaranthus palmeri (AMAPA); assay: Post-emergence Test (Table B2)
Procedure, shortened: as §1

[10] = tested on: Amaranthus retroflexus (AMARE); assay: Post-emergence Test (Table B2)
Procedure, shortened: as §1

[11] = tested on: Amaranthus palmeri (AMAPA); assay: Pre-emergence Test (Table B1)
Zea mays (ZEAMX) [12] = assay: Pre-emergence Test (Table B1); set-up: key: 5=81-100%; 4=61-80%; 3=41-60%; 2=21-40%; 1=0-20%; 0=inactive

| SMILES | percentage damage caused to the plant, IPOHE [1] | percentage damage caused to the plant, ZEAMX (Zea mays (ZEAMX) [2]) | percentage damage caused to the plant, ECHCG [3] | percentage damage caused to the plant, ECHCG [4] | percentage damage caused to the plant, AMARE [5] | percentage damage caused to the plant, IPOHE [6] | percentage damage caused to the plant, SETFA (Setaria faberi (SETFA) [7]) | percentage damage caused to the plant, SETFA (Setaria faberi (SETFA) [8]) | percentage damage caused to the plant, AMAPA [9] | percentage damage caused to the plant, AMARE [10] | percentage damage caused to the plant, AMAPA [11] | percentage damage caused to the plant, ZEAMX (Zea mays (ZEAMX) [12]) |
| --- | --- | --- | --- | --- | --- | --- | --- | --- | --- | --- | --- | --- |
| CCn1c(C)c(-c2cc(C(=O)OC(C)C#N)c(Cl)cc2F)c(=O)c(C(=O)O)c1-c1ccc(Cl)c(Cl)c1 (stereo not drawn) [Compound 44, 5-[4-chloro-5-(1-cyanoethoxycarbonyl)-2-fluoro-phenyl]-2-(3,4-dichlorophenyl)-1-ethyl-6-methyl-4-oxo-pyridine-3-carboxylic acid] | 4 (4=61-80%) | 2 (2=21-40%) | 3 (3=41-60%) | 0 | 5 (5=81-100%) | 2 (2=21-40%) | 0 | 3 (3=41-60%) | 5 (5=81-100%) | 5 (5=81-100%) | 5 (5=81-100%) | 0 |
| CCn1c(C)c(-c2cc(C(=O)OC3CC3)c(Cl)cc2F)c(=O)c(C(=O)O)c1-c1ccc(C#N)c(Cl)c1 [Compound 46, 2-(3-chloro-4-cyano-phenyl)-5-[4-chloro-5-(cyclopropoxycarbonyl)-2-fluoro-phenyl]-1-ethyl-6-methyl-4-oxo-pyridine-3-carboxylic acid] | 4 (4=61-80%) | 5 (5=81-100%) | 5 (5=81-100%) | 0 | 5 (5=81-100%) | 2 (2=21-40%) | 1 (1=0-20%) | 5 (5=81-100%) | 5 (5=81-100%) | 5 (5=81-100%) | 5 (5=81-100%) | 0 |
